≈ marks a conversion by molar mass, not a printed value.
test system: Escherichia coli; experiment: Antibacterial activity against Escherichia coli MG1655 measured every 15 mins for 12 hrs; assay type: functional; settings: K-12 substr. MG1655

Compound | MIC [µg/mL]
CO[C@@]1(NC(=O)Cc2cccs2)C(=O)N2C(C(=O)O)=C(COC(N)=O)CS[C@@H]21 [CEFOXITIN] | 4.5 (≈ 10.5 µM)
CCn1cc(C(=O)O)c(=O)c2ccc(C)nc21 [NALIDIXIC ACID] | 5 (≈ 21.5 µM)
CN[C@@H]1[C@H](O)[C@H](NC)[C@H]2O[C@@]3(O)C(=O)C[C@@H](C)O[C@H]3O[C@@H]2[C@H]1O [SPECTINOMYCIN] | 5.6 (≈ 16.8 µM)
GENTAMICIN | 3
Cc1onc(-c2ccccc2)c1C(=O)N[C@@H]1C(=O)N2[C@@H]1SC(C)(C)[C@@H]2C(=O)O [OXACILLIN] | 190 (≈ 473 µM)
COc1cc(Cc2cnc(N)nc2N)cc(OC)c1OC [TRIMETHOPRIM] | 0.35 (≈ 1.21 µM)
NC[C@H]1O[C@H](O[C@H]2[C@H](O)[C@@H](O[C@H]3O[C@H](CO)[C@@H](O)[C@H](N)[C@H]3O)[C@H](N)C[C@@H]2N)[C@H](O)[C@@H](O)[C@@H]1O [KANAMYCIN] | 14 (≈ 28.9 µM)
CC[C@H]1OC(=O)[C@H](C)[C@@H](O[C@H]2C[C@@](C)(OC)[C@@H](O)[C@H](C)O2)[C@H](C)[C@@H](O[C@@H]2O[C@H](C)C[C@H](N(C)C)[C@H]2O)[C@](C)(O)C[C@@H](C)C(=O)[C@H](C)[C@@H](O)[C@]1(C)O [ERYTHROMYCIN] | 13 (≈ 17.7 µM)
NCC[C@H](O)C(=O)N[C@@H]1C[C@H](N)[C@@H](O[C@H]2O[C@H](CN)[C@@H](O)[C@H](O)[C@H]2O)[C@H](O)[C@H]1O[C@H]1O[C@H](CO)[C@@H](O)[C@H](N)[C@H]1O [AMIKACIN] | 4 (≈ 6.83 µM)
C/C(=C\C(=O)OCCCCCCCCC(=O)O)C[C@@H]1OC[C@H](C[C@@H]2O[C@H]2[C@@H](C)[C@H](C)O)[C@@H](O)[C@H]1O [MUPIROCIN] | 66 (≈ 132 µM)
CC(=O)O[C@H]1C[C@@]2(C)[C@@H](C[C@@H](O)[C@H]3[C@@]4(C)CC[C@@H](O)[C@@H](C)[C@@H]4CC[C@@]32C)/C1=C(\CCC=C(C)C)C(=O)O [FUSIDIC ACID] | 800 (≈ 1550 µM)
O=C(N[C@H](CO)[C@H](O)c1ccc([N+](=O)[O-])cc1)C(Cl)Cl [CHLORAMPHENICOL] | 5 (≈ 15.5 µM)
CN[C@H](CC(C)C)C(=O)N[C@H]1C(=O)N[C@@H](CC(N)=O)C(=O)N[C@H]2C(=O)N[C@H]3C(=O)N[C@H](C(=O)N[C@H](C(=O)O)c4cc(O)cc(O)c4-c4cc3ccc4O)[C@H](O)c3ccc(c(Cl)c3)Oc3cc2cc(c3O[C@@H]2O[C@H](CO)[C@@H](O)[C@H](O)[C@H]2O[C@H]2C[C@](C)(N)[C@H](O)[C@H](C)O2)Oc2ccc(cc2Cl)[C@H]1O [VANCOMYCIN] | 180 (≈ 124 µM)
CC1(C)S[C@@H]2[C@H](NC(=O)Cc3ccccc3)C(=O)N2[C@H]1C(=O)O [PENICILLIN G] | 20 (≈ 59.8 µM)
CO[C@H]1/C=C/O[C@@]2(C)Oc3c(C)c(O)c4c(O)c(c(/C=N/N5CCN(C)CC5)c(O)c4c3C2=O)NC(=O)/C(C)=C\C=C\[C@H](C)[C@H](O)[C@@H](C)[C@@H](O)[C@@H](C)[C@H](OC(C)=O)[C@@H]1C [RIFAMPIN] | 2.5 (≈ 3.04 µM)
CN(C)[C@@H]1C(O)=C(C(N)=O)C(=O)[C@@]2(O)C(O)=C3C(=O)c4c(O)cccc4[C@@](C)(O)[C@H]3C[C@@H]12 [TETRACYCLINE] | 18 (≈ 40.5 µM)
NC[C@H]1O[C@H](O[C@H]2[C@H](O)[C@@H](O[C@H]3O[C@H](CO)[C@@H](O)[C@H](N)[C@H]3O)[C@H](N)C[C@@H]2N)[C@H](N)C[C@@H]1O [TOBRAMYCIN] | 2.5 (≈ 5.35 µM)
CC[C@H]1OC(=O)[C@H](C)[C@@H](O[C@H]2C[C@@](C)(OC)[C@@H](O)[C@H](C)O2)[C@H](C)[C@@H](O[C@@H]2O[C@H](C)C[C@H](N(C)C)[C@H]2O)[C@](C)(OC)C[C@@H](C)C(=O)[C@H](C)[C@@H](O)[C@]1(C)O [CLARITHROMYCIN] | 22 (≈ 29.4 µM)
O=C1CN(/N=C/c2ccc([N+](=O)[O-])o2)C(=O)N1 [NITROFURANTOIN] | 12 (≈ 50.4 µM)
N=C(N)c1ccc(OCCCCCOc2ccc(C(=N)N)cc2)cc1 [PENTAMIDINE] | 100 (≈ 294 µM)
CC[C@H]1OC(=O)[C@H](C)[C@@H](O[C@H]2C[C@@](C)(OC)[C@@H](O)[C@H](C)O2)[C@H](C)[C@@H](O[C@@H]2O[C@H](C)C[C@H](N(C)C)[C@H]2O)[C@](C)(O)C[C@@H](C)/C(=N\OCOCCOC)[C@H](C)[C@@H](O)[C@]1(C)O [ROXITHROMYCIN] | 62 (≈ 74.1 µM)
O=c1[nH]cc(F)c(=O)[nH]1 [FLUOROURACIL] | 25 (≈ 192 µM)

From ChEMBL document CHEMBL4049433, “Prediction of Antibiotic Interactions Using Descriptors Derived from Molecular Structure” (2017)
